According to ChEMBL document CHEMBL1201862, “PubChem BioAssay data set” (2004):
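Briefly, cells in 96-well plates were exposed to five compound concentrations for 48 h, and endpoints were estimated by linear interpolation. GI50: concentration for 50% inhibition of growth.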 Calls of active or inactive are those of the source. Rule as the data show it: active = GI50 up to about 1.1 µM and inactive = higher.

Tests used:
Test in all cases: DTP human tumour cell line panel, 48 h
A498 = test system: A498
A549 = test system: A549
CCRF-CEM = test system: CCRF-CEM
HCT-116 = test system: HCT-116
HCT-15 = test system: HCT-15
Hs-578T = test system: Hs-578T
K562 = test system: K562
MDA-MB-231 = test system: MDA-MB-231
Malme-3M = test system: Malme-3M
NCI-H460 = test system: NCI-H460
NCI-H522 = test system: NCI-H522
NCI/ADR-RES = test system: NCI/ADR-RES
OVCAR-3 = test system: OVCAR-3
OVCAR-8 = test system: OVCAR-8
PC-3 = test system: PC-3
RPMI-8226 = test system: RPMI-8226
SK-MEL-2 = test system: SK-MEL-2
T47D = test system: T47D
U-251 = test system: U-251

Structure (SMILES) | GI50 (A498) | GI50 (A549) | GI50 (CCRF-CEM) | GI50 (HCT-116) | GI50 (HCT-15) | GI50 (Hs-578T) | GI50 (K562) | GI50 (MDA-MB-231) | GI50 (Malme-3M) | GI50 (NCI-H460) | GI50 (NCI-H522) | GI50 (NCI/ADR-RES) | GI50 (OVCAR-3) | GI50 (OVCAR-8) | GI50 (PC-3) | GI50 (RPMI-8226) | GI50 (SK-MEL-2) | GI50 (T47D) | GI50 (U-251)
CC(=O)O[C@H]1[C@@H](N2CCCCC2)C[C@H]2[C@@H]3CC=C4C[C@@H](N5CCCC5)CC[C@]4(C)[C@H]3CC[C@@]21C | > 100 µM (inactive) | > 100 µM (inactive) | 31.9 µM (inactive) | 64.3 µM (inactive) | 19.4 µM | > 100 µM (inactive) | 4.07 µM (inactive) | > 100 µM (inactive) | 22.8 µM (inactive) | 91.6 µM (inactive) | > 100 µM (inactive) | > 100 µM (inactive) | > 100 µM (inactive) | > 100 µM (inactive) | 43.4 µM (inactive) | 26.5 µM (inactive) | > 100 µM (inactive) | > 100 µM (inactive) | 69 µM (inactive)
Cc1cc2c(cc1-c1cc3c(cc1C)C(C(C)C)=C(O)C(=O)/C3=C\NCC1CCCN3CCCCC13)/C(=C/NCC1CCCN3CCCCC13)C(=O)C(O)=C2C(C)C (configuration not stated) | 23.1 µM (inactive) | 4.93 µM (inactive) | 2.83 µM (inactive) | 4.72 µM (inactive) | 5.33 µM | 10.2 µM (inactive) | 12.2 µM (inactive) | 4.16 µM (inactive) | 10.3 µM (inactive) | 5.14 µM (inactive) | 2.84 µM (inactive) | 7.36 µM (inactive) | 3.01 µM (inactive) | 3.61 µM (inactive) | 5.02 µM (inactive) | 11.3 µM (inactive) | 8.02 µM (inactive) | 8.05 µM (inactive) | 2.9 µM (inactive)
O=C(O)c1ccc(CNCc2ccccc2)cc1 | > 100 µM (inactive) | > 100 µM (inactive) | > 100 µM (inactive) | > 100 µM (inactive) | > 100 µM | > 100 µM (inactive) | > 100 µM (inactive) | > 100 µM (inactive) | > 100 µM (inactive) | > 100 µM (inactive) | > 100 µM (inactive) | > 100 µM (inactive) | > 100 µM (inactive) | > 100 µM (inactive) | > 100 µM (inactive) | > 100 µM (inactive) | > 100 µM (inactive) | > 100 µM (inactive) | > 100 µM (inactive)
COc1ccc(C(OCC2OC(n3cnc4c(=O)n(Cc5ccccc5[N+](=O)[O-])nnc43)C(O)C2O)(c2ccccc2)c2ccc(OC)cc2)cc1 (configuration not stated) | 4.46 µM (inactive) | 5.57 µM (inactive) | 3.76 µM (inactive) | 5.6 µM (inactive) | 9.31 µM | 20.8 µM (inactive) | 4.6 µM (inactive) | 14.1 µM (inactive) | 14.7 µM (inactive) | 5.57 µM (inactive) | 6.49 µM (inactive) | 19.1 µM (inactive) | 9.82 µM (inactive) | 8.11 µM (inactive) | 3.85 µM (inactive) | 3.36 µM (inactive) | 14.7 µM (inactive) | 11.5 µM (inactive) | 11 µM (inactive)
CCN(CC)CC(O)C1CCC(c2ccccc2)CC1 (configuration not stated) | 14.4 µM (inactive) | 32.6 µM (inactive) | 27.4 µM (inactive) | 23.2 µM (inactive) | 13.2 µM | 30.5 µM (inactive) | 26.8 µM (inactive) | 17.1 µM (inactive) | 16.3 µM (inactive) | 25.6 µM (inactive) | 16.2 µM (inactive) | 43.2 µM (inactive) | 44 µM (inactive) | 16.3 µM (inactive) | 43.6 µM (inactive) | 13.5 µM (inactive) | 16.7 µM (inactive) | 26.9 µM (inactive) | 19.8 µM (inactive)
CCN(CC)CCNc1ccc2ncn3c4c(OC)ccc(O)c4c(=O)c1c23 | 10 µM (inactive) | 2.86 µM (inactive) | 4.12 µM (inactive) | 1.16 µM (inactive) | 3.63 µM | 92.5 µM (inactive) | 8.13 µM (inactive) | 13.7 µM (inactive) | 19.4 µM (inactive) | 0.764 µM (active) | 1.41 µM (inactive) | 2.54 µM (inactive) | 31.2 µM (inactive) | 6.93 µM (inactive) | 10.9 µM (inactive) | 4.21 µM (inactive) | > 100 µM (inactive) | > 100 µM (inactive) | 12.6 µM (inactive)
CCCNC(=O)CCC(C)[C@H]1CCC2C3C(C[C@H](OC(C)=O)[C@@]21C)[C@@]1(C)CCC2(C[C@H]1C[C@H]3OC(C)=O)OOC1(CCCCC1)OO2 (some centres not stated) | 33.7 µM (inactive) | 0.416 µM (active) | 1.73 µM (inactive) | 2.93 µM (inactive) | 3.68 µM | 7.33 µM (inactive) | 4.05 µM (inactive) | 1.94 µM (inactive) | 2.13 µM (inactive) | 1.67 µM (inactive) | 0.473 µM (active) | 2.39 µM (inactive) | 1.87 µM (inactive) | 1.42 µM (inactive) | 1.69 µM (inactive) | 0.923 µM (active) | 2 µM (inactive) | 2.11 µM (inactive) | 1.85 µM (inactive)
N#Cc1c(O)n(-c2ccccc2)c(=O)c2c(N)n[nH]c12 | > 100 µM (inactive) | > 100 µM (inactive) |  | > 100 µM (inactive) | > 100 µM | > 100 µM (inactive) | 56.4 µM (inactive) | > 100 µM (inactive) | > 100 µM (inactive) | > 100 µM (inactive) | 69.8 µM (inactive) | > 100 µM (inactive) | > 100 µM (inactive) | > 100 µM (inactive) | > 100 µM (inactive) | > 100 µM (inactive) | > 100 µM (inactive) | > 100 µM (inactive) | > 100 µM (inactive)
COc1cc(NCCC2CCCCN2)c2ncccc2c1 (configuration not stated) | 53.2 µM (inactive) | > 96.6 µM (inactive) | 25.1 µM (inactive) | 36 µM (inactive) | > 74.3 µM | > 96.4 µM (inactive) | > 44.2 µM (inactive) | 34.8 µM (inactive) | 26.9 µM (inactive) | 39.7 µM (inactive) | 55.7 µM (inactive) | > 100 µM (inactive) | 4.63 µM (inactive) | > 100 µM (inactive) | 74.5 µM (inactive) | > 48.3 µM (inactive) | > 55.7 µM (inactive) | 0.397 µM (active) | 56.4 µM (inactive)
Cc1ccc(C(=O)/C=C/N2CCN(c3cccc(C(F)(F)F)c3)CC2)cc1 | 15.8 µM (inactive) | 22.9 µM (inactive) |  | 16.7 µM (inactive) | 15.6 µM | 24 µM (inactive) | 18.7 µM (inactive) | 14.6 µM (inactive) | 18.6 µM (inactive) | 21.7 µM (inactive) | 17.5 µM (inactive) | 17.9 µM (inactive) | 14.4 µM (inactive) | 17.5 µM (inactive) | 25.1 µM (inactive) | 31.9 µM (inactive) | 18.6 µM (inactive) | 20.1 µM (inactive) | 16.8 µM (inactive)
COc1cc2c(cc1OCc1ccccc1)NC(=O)[C@@H]1C[C@@H](O)CN1C2=O | > 100 µM (inactive) | > 100 µM (inactive) | > 100 µM (inactive) | > 100 µM (inactive) | > 100 µM | > 100 µM (inactive) | > 100 µM (inactive) | 75 µM (inactive) | > 100 µM (inactive) | > 100 µM (inactive) | > 100 µM (inactive) | > 100 µM (inactive) | > 100 µM (inactive) | > 100 µM (inactive) | > 100 µM (inactive) | > 100 µM (inactive) | > 100 µM (inactive) | > 100 µM (inactive) | > 100 µM (inactive)
CCOC(=O)C1CCCCN1C(=O)Cc1c[nH]c2ccccc12 (configuration not stated) | 33.9 µM (inactive) | 55.2 µM (inactive) | 42.5 µM (inactive) | > 100 µM (inactive) | 87.7 µM | 24.8 µM (inactive) | 68.9 µM (inactive) | 79.6 µM (inactive) | 57.4 µM (inactive) | > 100 µM (inactive) | 31.4 µM (inactive) | 69.7 µM (inactive) | 52.6 µM (inactive) | 42.4 µM (inactive) | 31.7 µM (inactive) | 20 µM (inactive) | 61.9 µM (inactive) | 37 µM (inactive) | 67.3 µM (inactive)
O[C@@H]1C=C[C@]23CCN(Cc4cc5c(cc42)OCO5)[C@@H]3C1 | > 100 µM (inactive) | 46.6 µM (inactive) | 48.9 µM (inactive) | 42.8 µM (inactive) | > 100 µM | > 100 µM (inactive) | > 100 µM (inactive) | 58.2 µM (inactive) | > 100 µM (inactive) | 42.7 µM (inactive) | 82.4 µM (inactive) | > 100 µM (inactive) | > 100 µM (inactive) | 54.1 µM (inactive) | 45.2 µM (inactive) | 50.7 µM (inactive) | 31.3 µM (inactive) | 39.1 µM (inactive) | 41.2 µM (inactive)
S=C1NCN2CCN(CC2)CNC(=S)C(=S)NCN2CCN(CC2)CNC1=S | > 100 µM (inactive) | 36.8 µM (inactive) | 18.5 µM (inactive) | 79.4 µM (inactive) | 31.3 µM | 54.1 µM (inactive) | 27.3 µM (inactive) | > 100 µM (inactive) | > 100 µM (inactive) | 20.7 µM (inactive) | 31 µM (inactive) | 67.5 µM (inactive) | 22 µM (inactive) | 31.8 µM (inactive) | 35.2 µM (inactive) | 23.7 µM (inactive) | 43.2 µM (inactive) | > 100 µM (inactive) | 37.7 µM (inactive)
Cc1cc(C)c(C2=NOC(c3ccccc3)(c3cc(=O)n(-c4ccccc4)s3)O2)c(C)c1 (configuration not stated) | > 100 µM (inactive) | 29.5 µM (inactive) | 23.8 µM (inactive) | > 100 µM (inactive) | 19.3 µM | 52.6 µM (inactive) | > 100 µM (inactive) | 30.8 µM (inactive) | 18.8 µM (inactive) | 43.1 µM (inactive) | 17.5 µM (inactive) | 23.3 µM (inactive) |  | 18.7 µM (inactive) | 30.9 µM (inactive) | 37 µM (inactive) | 28 µM (inactive) | 17.3 µM (inactive) | 24.7 µM (inactive)
